Like-named read-outs stand apart in the source and are kept apart here.
What was measured:
Format in all cases: in vivo
ICR male mice [1] = experiment: Anti-reserpine action (antagonistic action against hypothermia); details: SC, mice given reserpine 5 mg/kg s.c., test compound 3 or 3.5 hours later, estimated from regression line; for ED (1 degC rise in body temperature): Mus musculus, 2 h, read-out: Concentration of test compound necessary for raising body temperature by 1 °C on the average for 120 minutes
Procedure: Anti-reserpine action (Antagonistic action against hypothermia)
ICR male mice weighing 35 - 40 g were subcutaneously administered with reserpine at the dose of 5 mg/kg. About 2 hours later, each of the mice was held by a mouse-holder, and a body temperature sensor was intrarectally inserted. Thereafter, the body temperature was automatically measured every 10 minutes. The test compound dissolved in saline was subcutaneously administered 3 or 3.5 hours after administration of reserpine. After the administration of the test compound, the body temperature was measured every 10 minutes over the period of 120 minutes. The area below the body temperature line during the period was calculated, from which the regression line was estimated based upon least square method, and estimated was the amount of the test compound necessary for raising the body temperature by 1 °C on the average for 120 minutes from that just before the administration of the test compound (Table 1).

Wistar male rats = experiment: Flexor reflex in spinalized rats; design: key to Area below the reflex amplitude linking line: area under % amplitude vs. time line over 60 min (pre-dose = 100%); details: pre-dose amplitude = 100%; for response vs control in vivo at 0.1 mg/kg / response vs control in vivo at 0.3 mg/kg: Rattus norvegicus; for Area below the reflex amplitude linking line: covering 60 minutes
Procedure: Flexor reflex in spinalized rats
Wistar male rats (weighing 450 - 520 g) were anesthetized with ether, and the cervical part of spinal cord was exposed, into which a tracheal cannula was inserted. The vagus nerves were severed bilaterally at the cervical region. Thereafter, the cervical vertebra C1 segment was transected, and rapidly, artificial ventilation was given with the use of an artificial respirator (Shinano Factory 60 rpm. 4 ml/stroke). The rat was placed on a thermostated apparatus in which water thermostated at 37 C was circulated and fixed thereto at forelimbs, right hindlimb, tooth and tail. A venous cannula was inserted into the femoral vein in the right hindlimb and two needle electrodes were subcutaneously inserted into the left skin of the toe, and a piece of thread was attached to the limb with the edge of the thread bonded to a force-displacement - transducer. Tension of about 5 g was applied to the thread. Through the elctrodes, electric stimuli of 50 - 100 V were applied once per 30 seconds. The flexor reflex was recorded on the polygraph via a force-displacement transducer. After the reaction became constant in about one-hours' lapse for stabilization, the test compound dissolved in saline was intravenously administered. Thereafter, the reaction was recorded for 1 hour. In the data, taking the mean of the three reactions just before administration of the test compound for 100%, the reflex amplitude at 1-, 3-, 5-, 8-, 10-, 15-, 20-, 30-, 40-, 50- and 60- minutes' lapse after administration of the test compound were calculated. In Table 3, there are shown calculated area below the straight line linking the obtained reflex amplitude at the respective above-mentioned time covering 60 minutes in the case of administration of each test compounds at the dose of 0.1 mg/kg, and the reflex amplitude at 10- and 60-minutes' lapse after administration (Table 3).

ICR male mice [2] = experiment: Anti-chlorpromazine action (locomotor stimulant action); details: SC, mice given chlorpromazine HCl 5 mg/kg s.c., test compound one hour later, estimated from regression line; for ED (3000 locomotor counts): Mus musculus, 2 h, read-out: Concentration of test compound necessary for inducing 3000 count of automatism quantity in 2 hours
Procedure: Anti-chlorpromazine action (Locomotor stimulant action)
ICR male mice weighing 35 - 40 g (four animals per group) were subcutaneously administered with chlorpromazine HCI at the dose of 5 mg/kg and immediately set in the automatic locomotor-measuring apparatus (AUTOMEX). One hour later, the test compound dissolved in saline was subcutaneously administered, and the locomotor activity was measured every 15 minutes for 120 minutes. The total locomotor activity during the period of 120 minutes was calculated and the regression line was estimated based on the method of least squares, from which the amount of the test compound necessary for inducing 3000 locomotor-count was estimated (Table 2).

[3] = 10 min, intravenous administration at the dose of 0.1 mg/kg, read-out: Reflex amplitude (%) 10 min. after
[4] = 10 min, intravenous administration at the dose of 0.3 mg/kg (footnote *), read-out: Reflex amplitude (%) 10 min. after
[5] = intravenous administration at the dose of 0.1 mg/kg
[6] = intravenous administration at the dose of 0.3 mg/kg (footnote *)
[7] = 1 h, intravenous administration at the dose of 0.1 mg/kg, read-out: Reflex amplitude (%) 60 min. after

| SMILES | ED (1 degC rise in body temperature) (ICR male mice [1]) | response vs control in vivo at 0.1 mg/kg (Wistar male rats; [3]) | response vs control in vivo at 0.3 mg/kg (Wistar male rats; [4]) | Area below the reflex amplitude linking line (Wistar male rats; [5]) | Area below the reflex amplitude linking line (Wistar male rats; [6]) | ED (3000 locomotor counts) (ICR male mice [2]) | Concentration of test compound necessary for raising body temperature by 1 °C on the average for 120 minutes (ICR male mice [1]) | Reflex amplitude (%) 10 min. after (Wistar male rats; [5]) | Reflex amplitude (%) 60 min. after (Wistar male rats; [5]) | Concentration of test compound necessary for inducing 3000 count of automatism quantity in 2 hours (ICR male mice [2]) | response vs control in vivo at 0.1 mg/kg (Wistar male rats; [7]) | response vs control in vivo at 0.3 mg/kg (Wistar male rats; 1 h, intravenous administration at the dose of 0.3 mg/kg (footnote *), read-out: Reflex amplitude (%) 60 min. after) |
| --- | --- | --- | --- | --- | --- | --- | --- | --- | --- | --- | --- | --- |
| C[C@H]1CC(=O)C[C@H]1C(=O)N[C@@H](Cc1c[nH]cn1)C(=O)N1CCC[C@H]1C(N)=O (mixture of isomers) [Compound 19, N^α-(cis-2-Methyl-4-oxocyclopentanecarbonyl)-L-histidyl-L-prolinamide] | 0.14 mg/kg | 138% | 250% | 11860 | 19114 | 0.54 mg/kg |  |  |  |  |  |  |
| C[C@@H]1CC(=O)C[C@H]1C(=O)N[C@@H](Cc1c[nH]cn1)C(=O)N1CCC[C@H]1C(N)=O (mixture of isomers) [Compound 20, N^α-(trans-2-Methyl-4-oxocyclopentanecarbonyl)-L-histidyl-L-prolinamide] | 0.27 mg/kg | 105% | 129% | 6317 | 10355 | 1.3 mg/kg |  |  |  |  |  |  |
| NC(=O)[C@@H]1CCCN1C(=O)[C@H](Cc1c[nH]cn1)NC(=O)[C@H]1NC(=O)C[C@@H]1c1ccccc1 (relative stereo) [Compound 10, N^a-(trans-3-Phenylpyroglutamyl)-L-histidyl-L-prolinamide] |  |  |  | 16593 |  |  | 0.53 mg/kg | 242.7% | 329.2% | 1.89 mg/kg |  |  |
| NC(=O)[C@@H]1CCCN1C(=O)[C@H](Cc1c[nH]cn1)NC(=O)[C@H]1NC(=O)C[C@H]1c1ccccc1 (relative stereo) [Compound 11, N^α-(cis-3-Phenylpyroglutamyl)-L-histidyf-L-prolinamide] |  |  |  | 11321 |  |  | 0.28 mg/kg | 140.4% | 240.8% | 1.89 mg/kg |  |  |
| C[C@@H]1CC(=O)N[C@@H]1C(=O)N[C@@H](Cc1c[nH]cn1)C(=O)N1CCC[C@H]1C(N)=O [Compound 1, N^α-(cis-3-Methylpyroglutamyt)-L-histidyl-L-prolinamide] | 0.3 mg/kg | 159% |  | 12970 |  | 0.51 mg/kg |  |  |  |  |  |  |
| C[C@H]1CC(=O)N[C@@H]1C(=O)N[C@@H](Cc1c[nH]cn1)C(=O)N1CCC[C@H]1C(N)=O [Compound 2, N^α-(trans-3-Methylpyroglutamyl)-L-histidyl-L-prolinamide] | 1.11 mg/kg | 126% |  | 7077 |  | 12.9 mg/kg |  |  |  |  |  |  |
| C[C@@H]1CC(=O)N[C@@H]1C(=O)N[C@@H](Cc1c[nH]cn1)C(=O)N1CSC[C@H]1C(N)=O [Compound 3, 3-[N^α-(cis-3-Methylpyroglutamyt)-L-histidyl]-L-thiazolidine-4-carboxamide] | 0.2 mg/kg | 190% |  | 13811 |  | 0.47 mg/kg |  |  |  |  | 278% |  |
| C[C@H]1CC(=O)N[C@@H]1C(=O)N[C@@H](Cc1c[nH]cn1)C(=O)N1CSC[C@H]1C(N)=O [Compound 4, 3-[N^α-(trans-3-Methylpyroglutamyl)-L-histidyl]-L-thiazolidine-4-carboxamide] | 0.34 mg/kg | 143% |  | 9404 |  | 0.63 mg/kg |  |  |  |  | 164% |  |
| C[C@@H]1CC(=O)O[C@@H]1C(=O)N[C@@H](Cc1c[nH]cn1)C(=O)N1CCC[C@H]1C(N)=O [Compound 5, N^α-[(2S,3R)-Tetrahydro-3-methyl-5-oxo-2-furancarbonyl]-L-histidyl-L-prolinamide] | 0.12 mg/kg | 132% |  | 9221 |  | 0.7 mg/kg |  |  |  |  |  |  |
| NC(=O)[C@@H]1CCCN1C(=O)[C@H](Cc1c[nH]cn1)NC(=O)C1CCC(=O)C1 (stereo partly drawn) [Compound 13, N^α-(3-Oxocyclopentanecarbonyl)-L-histidyl-L-prolinamide] | 0.71 mg/kg | 110% |  | 8572 |  | 1.03 mg/kg |  |  |  |  |  |  |
| NC(=O)[C@@H]1CCCN1C(=O)[C@H](Cc1c[nH]cn1)NC(=O)[C@@H]1CCC(=O)C1 [Compound 16, N^a-[(1 R)-3-Oxocyclopentanecarbonyl]-L-histidyl-L-prolinamide] | 0.12 mg/kg | 152% |  | 12016 |  | 0.88 mg/kg |  |  |  |  |  |  |
| CC1(C)CC(=O)CC1C(=O)N[C@@H](Cc1c[nH]cn1)C(=O)N1CCC[C@H]1C(N)=O (stereo partly drawn) [Compound 21, N^α-(2,2-Dimethyl-4-oxocyclopentanecarbonyl)-L-histidyl-L-prolinamide] | 0.18 mg/kg | 115% | 170% | 7186 | 14294 | 0.83 mg/kg |  |  |  |  |  |  |
| NC(=O)C1CCCN1C(=O)C(Cc1c[nH]cn1)NC(=O)C1CCC(=O)O1 (centres unmarked) [DN1417, reference compound] | 2.06 mg/kg |  | 114% |  | 8152 | 4.34 mg/kg |  |  |  |  |  | 163% |
| NC(=O)[C@@H]1CCCN1C(=O)[C@H](Cc1c[nH]cn1)NC(=O)[C@@H]1CCC(=O)N1 [TRH, L-pyroglutamyl-L-histidyl-L-prolinamide, reference compound] |  | 118% |  |  |  | 6.82 mg/kg |  |  |  |  |  |  |

— patent EP0384380A2, “Novel peptide derivatives and their pharmaceutical use” (JAPAN TOBACCO INC., priority 1989, dated 1990)
